{"source": "patent US20080114005A1", "about": "“Fibrate Compounds Having Ppar Agonist Activity” (Dr. Reddy's Laboratories Limited, priority 2004, published 2008)", "data": [{"smiles": "CCCc1nc2ccccc2c(=O)n1CCCCNc1ccc(SC(C)(C)C(=O)O)cc1", "note": "[Example 18, 2-Methyl-2-{4-[4-(4-oxo-2-propyl-4H-quinazolin-3-yl)-butylamino]-phenylsulfanyl}-propionic acid]", "values": [{"measurement": "melting point", "result": "100 to 104", "unit": "°C"}]}, {"smiles": "Cc1nc2ccccc2c(=O)n1CCOc1ccc(SC(C)(C)C(=O)O)cc1", "note": "[Example 22, 2-Methyl-2-{4-[2-(2-methyl-4-oxo-4H-quinazolin-3-yl)-ethoxy]-phenylsulfanyl}-propionic acid]", "values": [{"measurement": "melting point", "result": "188 to 190", "unit": "°C"}]}, {"smiles": "CCCc1nn(C)c2c(=O)n(CCCOc3ccc(OC(C)(C)C(=O)O)cc3)c(CC)nc12", "note": "[Example 74, 2-{4-[3-(5-Ethyl-1-methyl-7-oxo-3-propyl-1,7-dihydro-pyrazolo[4,3-d]pyrimidin-6-yl)-propoxy]-phenoxy}-2-methyl-propionic acid]", "values": [{"measurement": "melting point", "result": "124 to 126", "unit": "°C"}]}, {"smiles": "CCOC(=O)C(C)(C)Sc1ccc(OCCn2c(CC)nc3ccccc3c2=O)cc1", "note": "[Example 33, 2-{4-[2-(2-Ethyl-4-oxo-4H-quinazolin-3-yl)-ethoxy]-phenylsulfanyl}-2-methyl-propionic acid ethyl ester]", "values": [{"measurement": "melting point", "result": "120 to 122", "unit": "°C"}]}, {"smiles": "CCOC(=O)C(C)(C)Sc1ccc(OCCn2c(C)nc3ccccc3c2=O)cc1", "note": "[Example 21, 2-Methyl-2-{4-[2-(2-methyl-4-oxo-4H-quinazolin-3-yl)-ethoxy]-phenylsulfanyl}-propionic acid ethyl ester]", "values": [{"measurement": "melting point", "result": "114 to 116", "unit": "°C"}]}, {"smiles": "CCCc1nn(C)c2c(=O)n(CCOc3ccc(OC4(C(=O)OCC)CCC4)cc3)c(C)nc12", "note": "[Example 90, 1-{4-[2-(1,5-Dimethyl-7-oxo-3-propyl-1,7-dihydro-pyrazolo[4,3-d]pyrimidin-6-yl)-ethoxy]-phenoxy}-cyclobutanecarboxylic acid ethyl ester]", "values": [{"measurement": "melting point", "result": "132 to 134", "unit": "°C"}]}, {"smiles": "CCCc1nn(C)c2c(=O)n(CCOc3ccc(SC(C)(C)C(=O)O)cc3)c(C)nc12", "note": "[Example 32, 2-{4-[2-(1,5-Dimethyl-7-oxo-3-propyl-1,7-dihydro-pyrazolo[4,3-d]pyrimidin-6-yl)-ethoxy]-phenylsulfanyl}-2-methyl-propionic acid]", "values": [{"measurement": "melting point", "result": "182 to 184", "unit": "°C"}]}, {"smiles": "CCCc1nn(CC)c2c(=O)n(CCOc3cccc(OC(C)(C)C(=O)O)c3)c(C)nc12", "note": "[Example 93, 2-{3-[2-(1-Ethyl-5-methyl-7-oxo-3-propyl-1,7-dihydro-pyrazolo[4,3-d]pyrimidin-6-yl)-ethoxy]-phenoxy}-2-methyl-propionic acid]", "values": [{"measurement": "melting point", "result": "147 to 149", "unit": "°C"}]}, {"smiles": "CCCc1nn(CC)c2c(=O)n(CCNc3ccc(SC(C)(C)C(=O)O)cc3)c(CC)nc12", "note": "[Example 48, 2-{4-[2-(1,5-Diethyl-7-oxo-3-propyl-1,7-dihydro-pyrazolo[4,3-d]pyrimidin-6-yl)-ethylamino]-phenylsulfanyl}-2-methyl-propionic acid]", "values": [{"measurement": "melting point", "result": "143 to 145", "unit": "°C"}]}, {"smiles": "CCCc1nn(C)c2c(=O)n(CCOc3ccc(OC(C)(C)C(=O)O)cc3)c(CC)nc12", "note": "[Example 70, 2-{4-[2-(5-Ethyl-1-methyl-7-oxo-3-propyl-1,7-dihydro-pyrazolo[4,3-d]pyrimidin-6-yl)-ethoxy]-phenoxy}-2-methyl-propionic acid]", "values": [{"measurement": "melting point", "result": "108 to 110", "unit": "°C"}]}, {"smiles": "CCc1nc2ccccc2c(=O)n1CCCOc1ccc(SC(C)(C)C(=O)O)cc1", "note": "[Example 24, 2-{4-[3-(2-Ethyl-4-oxo-4H-quinazolin-3-yl)-propoxy]-phenylsulfanyl}-2-methyl-propionic acid]", "values": [{"measurement": "melting point", "result": "156 to 158", "unit": "°C"}]}, {"smiles": "CCCc1nn(C)c2c(=O)n(CCCOc3ccc(SC(C)(C)C(=O)OCC)cc3)c(CC)nc12", "note": "[Example 39, 2-{4-[3-(5-Ethyl-1-methyl-7-oxo-3-propyl-1,7-dihydro-pyrazolo[4,3-d]pyrimidin-6-yl)-propoxy]-phenylsulfanyl}-2-methyl-propionic acid ethyl ester]", "values": [{"measurement": "melting point", "result": "52 to 54", "unit": "°C"}]}, {"smiles": "CCCc1nn(C)c2c(=O)n(CCNc3ccc(OC(C)(C)C(=O)O)cc3)c(CC)nc12", "note": "[Example 76, 2-{4-[2-(5-Ethyl-1-methyl-7-oxo-3-propyl-1,7-dihydro-pyrazolo[4,3-d]pyrimidin-6-yl)-ethylamino]-phenoxy}-2-methyl-propionic acid]", "values": [{"measurement": "melting point", "result": "136 to 138", "unit": "°C"}]}, {"smiles": "Cc1nc2ccccc2c(=O)n1CCCOc1ccc(SC(C)(C)C(=O)O)cc1", "note": "[Example 26, 2-Methyl-2-{4-[3-(2-methyl-4-oxo-4H-quinazolin-3-yl)-propoxy]-phenylsulfanyl}-propionic acid]", "values": [{"measurement": "melting point", "result": "144 to 146", "unit": "°C"}]}, {"smiles": "CCCc1nn(CC)c2c(=O)n(CCOc3ccc(SC(C)(C)C(=O)OCC)cc3)c(C)nc12", "note": "[Example 51, 2-{4-[2-(1-Ethyl-5-methyl-7-oxo-3-propyl-1,7-dihydro-pyrazolo[4,3-d]pyrimidin-6-yl)-ethoxy]-phenylsulfanyl}-2-methyl-propionic acid ethyl ester]", "values": [{"measurement": "melting point", "result": "85 to 87", "unit": "°C"}]}, {"smiles": "CCCc1nn(C)c2c(=O)n(CCCNc3ccc(OC(C)(C)C(=O)O)cc3)c(CC)nc12", "note": "[Example 72, 2-{4-[3-(5-Ethyl-1-methyl-7-oxo-3-propyl-1,7-dihydro-pyrazolo[4,3-d]pyrimidin-6-yl)-propylamino]-phenoxy}-2-methyl-propionic acid]", "values": [{"measurement": "melting point", "result": "124 to 126", "unit": "°C"}]}, {"smiles": "CCCc1nn(CC)c2c(=O)n(CCOc3ccc(SC(C)(C)C(=O)O)cc3)c(CC)nc12", "note": "[Example 50, 2-{4-[2-(1,5-Diethyl-7-oxo-3-propyl-1,7-dihydro-pyrazolo[4,3-d]pyrimidin-6-yl)-ethoxy]-phenylsulfanyl}-2-methyl-propionic acid]", "values": [{"measurement": "melting point", "result": "123 to 125", "unit": "°C"}]}, {"smiles": "CCCc1nn(C)c2c(=O)n(CCOc3ccc(OC(C)(C)C(=O)O)cc3)c(C)nc12", "note": "[Example 60, 2-{4-[2-(1,5-Dimethyl-7-oxo-3-propyl-1,7-dihydro-pyrazolo[4,3-d]pyrimidin-6-yl)-ethoxy]-phenoxy}-2-methyl-propionic acid]", "values": [{"measurement": "melting point", "result": "146 to 148", "unit": "°C"}]}, {"smiles": "CCCc1nn(CC)c2c(=O)n(CCNc3ccc(SC(C)(C)C(=O)OCC)cc3)c(CC)nc12", "note": "[Example 47, 2-{4-[2-(1,5-Diethyl-7-oxo-3-propyl-1,7-dihydro-pyrazolo[4,3-d]pyrimidin-6-yl)-ethylamino]-phenylsulfanyl}-2-methyl-propionic acid ethyl ester]", "values": [{"measurement": "melting point", "result": "85 to 87", "unit": "°C"}]}, {"smiles": "CCOC(=O)C(C)(C)Sc1ccc(OCCCn2c(C)nc3ccccc3c2=O)cc1", "note": "[Example 25, 2-Methyl-2-{4-[3-(2-methyl-4-oxo-4H-quinazolin-3-yl)-propoxy]-phenylsulfanyl}-propionic acid ethyl ester]", "values": [{"measurement": "melting point", "result": "162 to 164", "unit": "°C"}]}, {"smiles": "Cc1nc2ccccc2c(=O)n1CCNc1ccc(SC(C)(C)C(=O)O)cc1", "note": "[Example 2, 2-Methyl-2-{4-[2-(2-methyl-4-oxo-4H-quinazolin-3-yl)-ethylamino]-phenylsulfanyl}-propionic acid]", "values": [{"measurement": "melting point", "result": "226 to 228", "unit": "°C"}]}, {"smiles": "CCCc1nn(CC)c2c(=O)n(CCCOc3ccc(SC(C)(C)C(=O)O)cc3)c(C)nc12", "note": "[Example 28, 2-{4-[3-(1-Ethyl-5-methyl-7-oxo-3-propyl-1,7-dihydro-pyrazolo[4,3-d]pyrimidin-6-yl)-propoxy]-phenylsulfanyl}-2-methyl-propionic acid]", "values": [{"measurement": "melting point", "result": "118 to 120", "unit": "°C"}]}, {"smiles": "CCCc1nn(C)c2c(=O)n(CCNc3ccc(SC(C)(C)C(=O)O)cc3)c(CC)nc12", "note": "[Example 42, 2-{4-[2-(5-Ethyl-1-methyl-7-oxo-3-propyl-1,7-dihydro-pyrazolo[4,3-d]pyrimidin-6-yl)-ethylamino]-phenylsulfanyl}-2-methyl-propionic acid]", "values": [{"measurement": "melting point", "result": "187 to 189", "unit": "°C"}]}, {"smiles": "CCOC(=O)C(C)(CC)Sc1ccc(OCCCn2c(C)nc3ccccc3c2=O)cc1", "note": "(centres unmarked) [Example 55, 2-Methyl-2-{4-[3-(2-methyl-4-oxo-4H-quinazolin-3-yl)-propoxy]-phenylsulfanyl}-butyric acid ethyl ester]", "values": [{"measurement": "melting point", "result": "164 to 166", "unit": "°C"}]}, {"smiles": "CCCc1nn(C)c2c(=O)n(CCOc3ccc(NC(C)C(=O)OCC)cc3)c(CC)nc12", "note": "(centres unmarked) [Example 19, 2-{4-[2-(5-Ethyl-1-methyl-7-oxo-3-propyl-1,7-dihydro-pyrazolo[4,3-d]pyrimidin-6-yl)-ethoxy]-phenylamino}-propionic acid ethyl ester]", "values": [{"measurement": "melting point", "result": "104 to 108", "unit": "°C"}]}, {"smiles": "CCCc1nn(C)c2c(=O)n(CCCNc3ccc(OC(C)(C)C(=O)O)cc3)c(C)nc12", "note": "[Example 68, 2-{4-[3-(1,5-Dimethyl-7-oxo-3-propyl-1,7-dihydro-pyrazolo[4,3-d]pyrimidin-6-yl)-propylamino]-phenoxy}-2-methyl-propionic acid]", "values": [{"measurement": "melting point", "result": "104 to 106", "unit": "°C"}]}, {"smiles": "CCCc1nn(CC)c2c(=O)n(CCCOc3ccc(SC(C)(C)C(=O)O)cc3)c(CC)nc12", "note": "[Example 30, 2-{4-[3-(1,5-Diethyl-7-oxo-3-propyl-1,7-dihydro-pyrazolo[4,3-d]pyrimidin-6-yl)-propoxy]-phenylsulfanyl}-2-methyl-propionic acid]", "values": [{"measurement": "melting point", "result": "96 to 98", "unit": "°C"}]}, {"smiles": "CCc1nc2ccccc2c(=O)n1CCCNc1ccc(SC(C)(C)C(=O)O)cc1", "note": "[Example 10, 2-{4-[3-(2-Ethyl-4-oxo-4H-quinazolin-3-yl)-propylamino]-phenylsulfanyl}-2-methyl-propionic acid]", "values": [{"measurement": "melting point", "result": "60 to 62", "unit": "°C"}]}, {"smiles": "CCc1nc2ccccc2c(=O)n1CCCCNc1ccc(SC(C)(C)C(=O)O)cc1", "note": "[Example 16, 2-{4-[4-(2-Ethyl-4-oxo-4H-quinazolin-3-yl)-butylamino]-phenylsulfanyl}-2-methyl-propionic acid]", "values": [{"measurement": "melting point", "result": "58 to 62", "unit": "°C"}]}, {"smiles": "CCCc1nn(C)c2c(=O)n(CCCOc3ccc(SC(C)(C)C(=O)OCC)cc3)c(C)nc12", "note": "[Example 35, 2-{4-[3-(1,5-Dimethyl-7-oxo-3-propyl-1,7-dihydro-pyrazolo[4,3-d]pyrimidin-6-yl)-propoxy]-phenylsulfanyl}-2-methyl-propionic acid ethyl ester]", "values": [{"measurement": "melting point", "result": "52 to 54", "unit": "°C"}]}, {"smiles": "CCCc1nn(CC)c2c(=O)n(CCOc3ccc(SC(C)(CC)C(=O)O)cc3)c(C)nc12", "note": "(centres unmarked) [Example 54, 2-{4-[2-(1-Ethyl-5-methyl-7-oxo-3-propyl-1,7-dihydro-pyrazolo[4,3-d]pyrimidin-6-yl)-ethoxy]-phenylsulfanyl}-2-methyl-butyric acid]", "values": [{"measurement": "melting point", "result": "155 to 157", "unit": "°C"}]}, {"smiles": "CCC(C)(Sc1ccc(OCCCn2c(C)nc3ccccc3c2=O)cc1)C(=O)O", "note": "(centres unmarked) [Example 56, 2-Methyl-2-{4-[3-(2-methyl-4-oxo-4H-quinazolin-3-yl)-propoxy]-phenylsulfanyl}-butyric acid]", "values": [{"measurement": "melting point", "result": "130 to 132", "unit": "°C"}]}]}
